Experimental data reported in patent US7652031B2, “Compounds which mimic the chemical and biological properties of discodermolide” (priority 2001, dated 2010).
Like-named read-outs stand apart in the source and are kept apart here.

Columns and labels:
[1] = test system: A549 cells; test: Immunofluorescence (microtubules, DNA), A549 cells; format: cell-based, human
Method: In addition, cells were stained with Hoescht solution (Sigma; 1:2.5 dilution) for 15 min after the secondary antibody wash. Slides were analyzed using a Zeiss Axiophot microscope (rhodamine and DAPI filters) at ×100 magnification.

[2] = test system: microtubule protein (MTP); test: In vitro tubulin polymerization assay (turbidity at 350 nm); format: biochemical, calf; settings: for induction of tubulin assembly in the absence of GTP / extent of polymerization after 100 min / initial slope (0-5 min), slope for (+)-discodermolide assigned 1.0: 10 μM; for induction of tubulin assembly in the absence of GTP: 37° C.; for extent of polymerization after 100 min: turbidity; for initial slope (0-5 min), slope for (+)-discodermolide assigned 1.0: first 5 min, relative to (+)-discodermolide; for stability of the microtubules formed against calcium-induced depolymerization: microtubules formed in the presence of the compound
Method: (§1) All drugs were dissolved in sterile DMSO and stored at −20° C. Microtubule protein (MTP) was purified by 2 cycles of temperature-dependent assembly-disassembly from calf brain and stored in liquid nitrogen. See, for example, Welsenberg, R. C., “Microtubule formation in vitro in solutions containing low calcium concentrations”, Science, 1972, 177, 1104-1105.
Microtubule polymerization was evaluated by recording the change in turbidity of MTP at 350 nm for 100 min in a spectrophotometer (UVIKON, Research Instruments Int., San Diego, Calif.). See, for example, Shelanski, M. L., et al., “Microtuble assembly in the absence of added nucleotides”, Proc. Natl. Acad. Sci. USA, 1973, 70, 765-768. Purified MTP was diluted in assembly buffer containing 0.1 M MES, I mM EGTA, 0.5 mM MgCl2, and 3 M glycerol (pH 6.6) to a final concentration of 1 mg/ml. All compounds were evaluated at a concentration of 10 μM at 37° C. in the absence of GTP. The changes in absorption that occurred during the first 5 min were used to plot initial slopes from the linear portion of each curve in order to compare the initial activity of each compound.
The activities of Taxol, (+)-discodermolide, and several structural analogs were determined in the foregoing in vitro tubulin polymerization assay that measures changes in absorbance that correlate with the extent of microtubule polymerization. It will be appreciated that microtubule polymerization involves both nucleation (initiation) and elongation steps. The initial rates of polymerization reflect the nucleation process. See, for example, Gaskin, F., et al. “Turbidimetric studies of the in vitro assembly and disassembly of porcine neurotubules”, J. Mol. Biol., 1974, 89, 737-758.

[3] = test system: microtubules; test: Drug binding competition assay ([3H]Taxol binding to preformed microtubules); design: species or system calf
Method: as §1
The assay was performed using methods described in Bollag, D. M., et al., “Epothilones, a new class of microtubule-stabilizing agents with a Taxol-like mechanism of action”, Cancer-Res., 1995, 55, 2325-2333 and He, L., et al., “A common pharmacophore for Taxol and the epothilones based on the biological activity of a taxane molecule lacking a C-13 side chain”, Biochemistry, 2000, 39, 3972-3978. MTP (0.4 mg/ml) was incubated at 37° C. with 1 mM GTP and […] Taxol for 20 min to induce the assembly of microtubules. One hundred nanomolar [^3H]Taxol (specific activity: 19.3 Ci/mmol) and the indicated concentration of the competing agent were added simultaneously to the preformed microtubules. The mixtures were further incubated at 37° C. for 30 min to allow binding of [^3H]Taxol. Microtubules were collected by ultracentrifugation (100,000 g, 1 hr, 30° C.) and the radioactivity measured using a liquid scintillation counter. The inhibition of binding of [^3H]Taxol to microtubules was expressed as a percentage compared to the control (100%).

[4] = test system: F1 recipient mice; settings: cited from earlier work
[5] = test system: A549 cells; test: Cytotoxicity assay, A549 cells; format: cell-based, human
Method: The A549 lung carcinoma cell line was maintained as described in Kavallaris, M., et al., “Taxol-resistant epithelial ovarian tumors are associated with altered expression of specific β-tubulin isotypes”, J. Clin. Invest., 1997, 100, 1282-1293.
(§2) A549 cells were seeded in triplicate at a density of 1×10^4 cells/ml in 6-well plates and allowed to attach for 24 h. After incubation with various drug concentrations for 72 h, adherent cells were trypsinized and counted (Coulter Counter model Z1; Coulter Corp., Miami, Fla.), and the IC50 was determined. SKOV3 cells were seeded at a density of 2×10^4 cells/ml and the above procedure followed.

[6] = test system: murine splenocytes; settings: in vitro, cited from earlier work
[7] = test system: MCF-7 cells; settings: cited from earlier work
[8] = test system: A549 cells; test: Flow cytometry (cell cycle), A549 cells; format: cell-based, human; settings: 24 h
[9] = test system: tubulin; settings: cited from earlier work
[10] = test system: tubulin; settings: cited from earlier work; remark: listed apart in the source
[11] = test system: microtubule protein (MTP); test: Electron microscopy of microtubules from the in vitro polymerization assay; format: biochemical, calf; settings: for Average Polymer Length (μm): microtubule lengths after assembly, minimum of 50 microtubules
Method: Aliquots (50 μL) were taken from the in vitro polymerization assay at the end of the reaction and placed onto 300-mesh carbon-coated, Formavar-treated copper grids. Samples were then stained with 20 μL of 2% uranyl acetate and viewed with a JEOL model 100CX electron microscope. To determine the lengths of the microtubules, electron micrograph negatives were scanned and then analyzed using IP Lab software. Measurements were performed on negatives at ×10000 and ×50000, with a minimum of 50 microtubules measured for each compound.
The microtubule protein from each in vitro assay was examined by electron microscopy to confirm that normal microtubules were formed in the presence of the compounds. In all cases, except for the DMSO control, microtubules were observed. […] Table 1 provides a comparison of microtubule lengths after assembly with Taxol, discodermolide and analogs I-i, I-ii, I-iii, and I-iv.

[12] = test system: SKOV3 cells; test: Cytotoxicity assay, SKOV3 cells; format: cell-based, human
Method: The SKOV3 ovarian carcinoma cell line was obtained from Dr. V. Ling and was maintained as described in McDaid, H. M., et al., “Structure-activity profiles of eleutherobin analogs and their cross-resistance in Taxol-resistant cell lines”, Cancer Chemother. Pharmacol., 1999, 44, 131-137.
as §2

[13] = test system: murine splenocytes; settings: in vitro; cited from earlier work
[14] = test system: human carcinoma cell lines; settings: in cells; cited from earlier work
[15] = (+)-discodermolide 25 nM, analogs at different cytotoxic concentrations

C=C/C=C\[C@H](C)[C@H](OC(N)=O)[C@@H](C)[C@H](O)[C@@H](C)C/C(C)=C\[C@H](C)[C@@H](O)[C@@H](C)/C=C\[C@@H](O)C[C@@H]1OC(=O)[C@H](C)[C@@H](O)[C@H]1C (single isomer, unassigned) [(+)-discodermolide]
location of microtubule bundles in the cells [1]: at the periphery of the cells
microtubule bundles and condensed nuclear DNA [1, 15]: Microtubule bundles and condensed nuclear DNA appeared
concentrations at which bundles and condensed DNA were not seen ([1]; effect seen at 25 nM and above): below 12 nM
induction of tubulin assembly in the absence of GTP [2]: induced tubutin assembly in the absence of GTP
extent of polymerization after 100 min [2]: essentially the same
initial slope (0-5 min), slope for (+)-discodermolide assigned 1.0 [2]: 1.0
level of polymerization by protein content in the supernatant ([2]; end of assay, 100,000 g for 30 min): comparable
stability of the microtubules formed against calcium-induced depolymerization [2]: stable against calcium-induced depolymerzation
inhibition of binding of [3H]Taxol to microtubules ([3]; 1 μM competing agent): very similar inhibition
inhibition of binding of [3H]Taxol to microtubules ([3]; 10 μM competing agent): approximately 45%
inhibition of binding of [3H]Taxol to microtubules ([3]; 100 μM competing agent): ~95%
potency in graft-vs.-host splenomegaly response ([4]; compared with cyclosporin A and FK506): intermediate between those of cyclosporin A and FK506
suppression of graft-vs.-host splenomegaly response ([4]; injection of parental splenocytes into F1 recipient mice): suppresses
inhibition of the proliferation of A549 cells [5]: inhibited the proliferation of A549 cells
IC50 ([5]; Homo sapiens, A549, 72 h, read-out: A549 (IC50(μm))): 0.0038 µM
suppression of concanavalin A-induced mitogenesis [6]: suppresses
cytotoxicity associated with the suppression ([6]; mixed-lymphocyte reaction and mitogenesis assays): no associated cytotoxicity
potency at inducing microtubule bundles compared to Taxol [7]: more potent
hypodiploid population of cells (apoptosis) ([8]; 25 nM): increase in the hypodiploid population of cells
cell cycle block in G2/M phase [8, 15]: blocked in the G2/M phase of the cell cycle
binding affinity compared with Taxol ([9]; listed as 1): much higher
binding affinity compared with Taxol ([9]; listed as (+)-discoderrnolide): higher affinity for tubulin
potency at nucleating tubulin assembly compared to Taxol [10]: more potent
microtubule length compared with GTP or Taxol ([11]; electron microscopy): much shorter microtubules
Average Polymer Length (μm) [11]: 0.78 ± 0.3 μm
IC50 ([12]; Homo sapiens, SK-OV-3, 72 h, read-out: SKOV3 (IC50(μm))): 0.0313 ± 0.0068 µM
less active in SKOV3 compared to A549 cells ([12]; SKOV3 vs A549): approximately 8 fold
suppression of the two-way mixed-lymphocyte reaction [13]: suppresses
cytotoxicity compared with Taxol [14]: less cytotoxic than Taxol

CC(=O)O[C@H]1C(=O)[C@@]2(C)[C@H]([C@H](OC(=O)c3ccccc3)[C@]3(O)C[C@H](OC(=O)[C@H](O)[C@@H](NC(=O)c4ccccc4)c4ccccc4)C(C)=C1C3(C)C)[C@]1(OC(C)=O)CO[C@@H]1C[C@@H]2O [Taxol]
location of microtubule bundles in the cells [1]: throughout the cells
induction of tubulin assembly in the absence of GTP [2]: induced tubutin assembly in the absence of GTP
extent of polymerization after 100 min [2]: essentially the same
initial slope (0-5 min), slope for (+)-discodermolide assigned 1.0 [2]: 0.28
stability of the microtubules formed against calcium-induced depolymerization [2]: stable against calcium-induced depolymerzation
inhibition of binding of [3H]Taxol to microtubules ([3]; 1 μM competing agent): very similar inhibition
inhibition of binding of [3H]Taxol to microtubules ([3]; 10 μM competing agent): approximately 45%
inhibition of binding of [3H]Taxol to microtubules ([3]; 100 μM competing agent): 80%
Average Polymer Length (μm) [11]: 3.3 ± 1.2 μm
